Test results from PubChem BioAssay AID248 (DTP/NCI, 2004).
Inconclusive results and toxic doses are left out. Rule as the data show it: active = T/C of 150% or more; inactive = T/C below 125%.

Tested on: L1210 leukemia ip in BDF1 mice, survival T/C
Assay: NCI In Vivo Anticancer Drug Screen. Data for tumor model L1210 Leukemia (intraperitoneal) in B6D2F1 (BDF1) mice
Settings: endpoint: mean survival time, higher = longer survival
In short: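 Value reflects the ratio of survival in compound-treated mice to survival in vehicle-treated controls, with both groups carrying the same transplanted tumor.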

[1] = dose: 100.0 mg/kg/injection, schedule: Q04DX003 (ip), vehicle: saline with Tween-80
[2] = dose: 200.0 mg/kg/injection, schedule: Q04DX003 (ip), vehicle: saline with Tween-80
[3] = dose: 400.0 mg/kg/injection, schedule: Q04DX003 (ip), vehicle: saline with Tween-80
[4] = dose: 100.0 mg/kg/injection, schedule: Q04DX003 (ip), vehicle: Klucel (hydroxypropylcellulose) (HPC)
[5] = dose: 200.0 mg/kg/injection, schedule: Q04DX003 (ip), vehicle: Klucel (hydroxypropylcellulose) (HPC)
[6] = dose: 400.0 mg/kg/injection, schedule: Q04DX003 (ip), vehicle: Klucel (hydroxypropylcellulose) (HPC)
[7] = dose: 100.0 mg/kg/injection, schedule: Q01DX009 (ip), vehicle: saline

Measured: T/C

COC(OC)c1[nH]c(=S)[nH]c(=O)c1Cc1cccc2ccccc12
inactive: dose: 100.0 mg/kg/injection, schedule: Q01DX001 (ip), vehicle: Klucel (hydroxypropylcellulose) (HPC) 105 % of control | dose: 100.0 mg/kg/injection, schedule: Q01DX009 (ip), vehicle: saline with Tween-80 96 % of control | [1] 100 % of control | dose: 200.0 mg/kg/injection, schedule: Q01DX001 (ip), vehicle: Klucel (hydroxypropylcellulose) (HPC) 105 % of control | dose: 200.0 mg/kg/injection, schedule: Q01DX009 (ip), vehicle: saline with Tween-80 89 % of control | [2] 100 % of control | dose: 400.0 mg/kg/injection, schedule: Q01DX001 (ip), vehicle: Klucel (hydroxypropylcellulose) (HPC) 96 % of control | dose: 400.0 mg/kg/injection, schedule: Q01DX009 (ip), vehicle: saline with Tween-80 93 % of control | [3] 102 % of control

Cc1ccc(OCCOc2ccc([N+](=O)[O-])cc2)cc1
inactive: [4] 96 % of control | [5] 93 % of control | [6] 91 % of control

Oc1ccc(O)c2c1C1(Cl)C(Cl)=C(Cl)C2(Cl)C1(Cl)Cl
inactive: dose: 100.0 mg/kg/injection, schedule: Q04DX003 (ip), vehicle: other 101 % of control | dose: 200.0 mg/kg/injection, schedule: Q04DX003 (ip), vehicle: other 101 % of control | dose: 400.0 mg/kg/injection, schedule: Q04DX003 (ip), vehicle: other 108 % of control

O=[As](O)(CC(O)COc1ccccc1)c1ccccc1 (stereo unspecified)
inactive: dose: 6.25 mg/kg/injection, schedule: Q01DX001 (ip), vehicle: saline with Tween-80 98 % of control | dose: 12.5 mg/kg/injection, schedule: Q01DX001 (ip), vehicle: saline with Tween-80 98 % of control

NC(=NC(=O)c1ccccc1)N[N+](=O)[O-]
inactive: dose: 100.0 mg/kg/injection, schedule: Q04DX002 (ip), vehicle: gum acacia 104 % of control | dose: 200.0 mg/kg/injection, schedule: Q04DX002 (ip), vehicle: gum acacia 107 % of control | dose: 400.0 mg/kg/injection, schedule: Q04DX002 (ip), vehicle: gum acacia 104 % of control

Cc1nc(C(=O)NN)co1
inactive: dose: 5.0 mg/kg/injection, schedule: Q01DX001 (ip), vehicle: saline 106 % of control | dose: 10.0 mg/kg/injection, schedule: Q01DX001 (ip), vehicle: saline 110 % of control | dose: 20.0 mg/kg/injection, schedule: Q01DX001 (ip), vehicle: saline 101 % of control | dose: 40.0 mg/kg/injection, schedule: Q01DX001 (ip), vehicle: saline 101 % of control | dose: 80.0 mg/kg/injection, schedule: Q01DX001 (ip), vehicle: saline 104 % of control | dose: 100.0 mg/kg/injection, schedule: Q01DX001 (ip), vehicle: saline 98 % of control

COc1ccc(C(=O)N/N=C/C(CC(O)CO)=N/NC(=O)c2ccc(OC)cc2)cc1 (stereo unspecified)
inactive: [4] 95 % of control | [5] 92 % of control | [6] 96 % of control

CCC[CH2][Sn]([CH2]CCC)([CH2]CCC)[N]=C=S
inactive: dose: 0.39 mg/kg/injection, schedule: Q01DX001 (ip), vehicle: saline with Tween-80 89 % of control | dose: 0.78 mg/kg/injection, schedule: Q01DX001 (ip), vehicle: saline with Tween-80 93 % of control | dose: 1.56 mg/kg/injection, schedule: Q01DX001 (ip), vehicle: saline with Tween-80 105 % of control

CN(C)/C=N\c1ncnc2c1ncn2C1OC(CO)C2OC(C)(C)OC21 (stereo unspecified)
inactive: dose: 100.0 mg/kg/injection, schedule: Q01DX005 (ip), vehicle: saline 104 % of control | dose: 200.0 mg/kg/injection, schedule: Q01DX005 (ip), vehicle: saline 103 % of control

COC(=O)CCC(=O)/C=C1/Nc2ccccc2C1=O
inactive: [1] 92 % of control | [2] 95 % of control | [3] 90 % of control

C#CCONC(=O)c1ccc(OC)cc1
inactive: dose: 25.0 mg/kg/injection, schedule: Q01DX009 (ip), vehicle: carboxymethylcellulose (CMC) 98 % of control | dose: 50.0 mg/kg/injection, schedule: Q01DX009 (ip), vehicle: carboxymethylcellulose (CMC) 98 % of control | dose: 100.0 mg/kg/injection, schedule: Q01DX009 (ip), vehicle: carboxymethylcellulose (CMC) 96 % of control

NC(=O)N/N=C(\CBr)c1ccc(Br)cc1
inactive: [7] 93 % of control

O=c1oc2ccccc2cc1-c1ccc([N+](=O)[O-])cc1
inactive: dose: 100.0 mg/kg/injection, schedule: Q04DX002 (ip), vehicle: Klucel (hydroxypropylcellulose) (HPC) 100 % of control | dose: 200.0 mg/kg/injection, schedule: Q04DX002 (ip), vehicle: Klucel (hydroxypropylcellulose) (HPC) 89 % of control | dose: 400.0 mg/kg/injection, schedule: Q04DX002 (ip), vehicle: Klucel (hydroxypropylcellulose) (HPC) 89 % of control

CCC(C1=CCCCC1)c1nc2c([nH]1)c(=O)n(C)c(=O)n2C (stereo unspecified)
inactive: dose: 50.0 mg/kg/injection, schedule: Q01DX001 (ip), vehicle: other 101 % of control | dose: 100.0 mg/kg/injection, schedule: Q01DX001 (ip), vehicle: other 90 % of control | dose: 200.0 mg/kg/injection, schedule: Q01DX001 (ip), vehicle: other 90 % of control | dose: 400.0 mg/kg/injection, schedule: Q01DX001 (ip), vehicle: other 97 % of control

c1ccc(-c2n[nH]c(-c3ccccc3)c2-c2ccccc2)cc1
inactive: [1] 92 % of control | [2] 100 % of control | [3] 95 % of control

O=[N+]([O-])c1ccccn1
inactive: dose: 6.25 mg/kg/injection, schedule: Q01DX009 (ip), vehicle: saline 102 % of control | dose: 6.25 mg/kg/injection, schedule: Q04DX003 (ip), vehicle: saline 95 % of control | dose: 12.5 mg/kg/injection, schedule: Q01DX009 (ip), vehicle: saline 102 % of control | dose: 12.5 mg/kg/injection, schedule: Q04DX003 (ip), vehicle: saline 98 % of control | dose: 25.0 mg/kg/injection, schedule: Q04DX003 (ip), vehicle: saline 93 % of control | dose: 75.0 mg/kg/injection, schedule: Q01DX001 (ip), vehicle: other 98 % of control

CCCCCCCCCCCCOc1ccc(C=O)cc1OC
inactive: [4] 95 % of control | [5] 98 % of control | [6] 106 % of control

CCOC(OCC)c1cc[n+](CCc2ccc(OC)c(OC)c2)cc1
inactive: dose: 25.0 mg/kg/injection, schedule: Q01DX009 (ip), vehicle: saline 101 % of control | dose: 25.0 mg/kg/injection, schedule: Q04DX003 (ip), vehicle: saline with Tween-80 95 % of control | dose: 50.0 mg/kg/injection, schedule: Q01DX009 (ip), vehicle: saline 101 % of control | dose: 50.0 mg/kg/injection, schedule: Q04DX003 (ip), vehicle: saline with Tween-80 88 % of control | [7] 98 % of control | [1] 95 % of control
